We go through two molecules from patent US11312715B2, “Fused ring derivative as A2A receptor inhibitor” (CSTONE PHARMACEUTICALS (SUZHOU) CO., LTD., priority 2017, dated 2022).

Data set [1] relates to mouse colon cancer CT26 cells. Kind of data set: In vivo pharmacodynamic test, CT26 subcutaneous tumor model, alone or combined with CS1003. Set-up: species or system BALB/C mice. The procedure: Experimental materials: BALB/C mice (female); mouse colon cancer CT26 cells (Typical Culture Preservation Commission cell bank, Chinese Academy of Sciences) were cultured in vitro in monolayer with RPMI-1640 medium containing 10% fetal bovine serum in a 37° C., 5% CO2 incubator. Trypsin-EDTA was used for routine digestion and passage. When the cells were in exponential growth phase and the saturation was 80%-90%, the cells were collected and counted.
Compound preparation: Embodiment 19 was weighted and added into the menstruum (10% PEG400+90% (10% Cremophor aqueous solution)) to prepare samples of 2.5 mg/mL, 5 mg/mL and 10 mg/mL respectively. 72 μL CS1003 (PD-1 antibody) solution (25 mg/mL) was taken and 1.728 mL Dulbecco's phosphate buffer (DPBS) was added to prepare a 1 mg/mL solution, then 16.2 mL DPBS was added to prepare a 0.1 mg/mL clear solution.
Experimental operation: the cells were resuspended in Dulbecco's phosphate buffer at a density of 3×10^6 cells/mL. 0.1 mL DPBS (containing 3×10^5 CT26 cells) was subcutaneously inoculated on the right back of each mouse. On the day of inoculation, the mice were randomly divided into groups with 9 mice each group according to the weight of the mice, then administration was started and continued for 20 days. During the whole experiment, the animals were weighed and the animal's health was monitored every day, in case of any special situation, the person in charge of the relevant project would be informed in time and the corresponding records would be made. Tumor diameter was measured twice a week with a vernier caliper. The calculation formula of the tumor volume was: V=0.5×a×b^2, wherein a and b represent the long and short diameters of the tumor respectively.
The antitumor effect of the compounds was evaluated by GI (%) or relative tumor proliferation rate T/C (%). Relative tumor proliferation rate T/C (%)=Vt/VC×100% (Vt: average tumor volume of treatment group; Vc: average tumor volume of negative control group). Vt and VC were the data on the same day. GI (%), tumor inhibition rate. GI (%)=1−Vt/VC×100%.
Statistical analysis was conducted using SPSS software based on the relative tumor volume and tumor weight at the end of the experiment. […] P<0.05 was considered as significant difference.

Data set [2] is described as follows: PK test of in vivo efficacy: plasma and tumor tissue drug concentration on day 20 of the CT26 study. On the set-up: species or system BALB/C mice. The conditions noted are these: mouse; for concentration at 1 h / concentration at 4 h / Kp at 4 h / Kp at 1 h: oral; for concentration at 1 h / Kp at 1 h: time point 1 h; for concentration at 1 h / concentration at 4 h: tumor tissue; for concentration at 4 h / Kp at 4 h: time point 4 h; for AUC(0-t) / Cmax / Tmax / half-life: plasma, po, day 20; for half-life: read-out: T½ (converted); for Kp at 4 h / Kp at 1 h: tumor tissue / plasma, read-out: T/P* Ratio (tumor tissue / plasma drug concentration). How it is done: The experiment was conducted on the basis of experimental example 3, on the 20th day after administration, blood samples and tissues were collected from each group at different time points (0 h, 0.25 h, 0.5 h, 1 h, 2 h, 4 h, 8 h and 24 h) after administration.

Where [3] appears, read: BALB/C, 50 mg/kg, Group 7, 50 mpk twice a day alone.
Setting [4] is: BALB/C, 100 mg/kg, Group 3, 100 mpk alone.
Where [5] appears, read: BALB/C, 25 mg/kg, Group 4: 25 mg/kg once a day PO + CS1003 1 mg/kg.
The mark [6] stands for this setting: BALB/C, 50 mg/kg, Group 5: 50 mg/kg once a day PO + CS1003 1 mg/kg.
[7] abbreviates: BALB/C, 50 mg/kg, Group 7: 50 mg/kg twice a day PO alone.
Setting [8] is: BALB/C, 50 mg/kg, Group 8: 50 mg/kg twice a day PO + CS1003 1 mg/kg.
Where [9] appears, read: BALB/C, 100 mg/kg, Group 3: 100 mg/kg once a day PO alone.
Where [10] appears, read: BALB/C, 100 mg/kg, Group 6: 100 mg/kg once a day PO + CS1003 1 mg/kg.
Setting [11] is: BALB/c, 50 mpk, Group 5, 50 mpk once a day + CS1003.
Where [12] appears, read: BALB/c, 100 mpk, Group 3, 100 mpk alone.
[13] abbreviates: BALB/c, 100 mpk, Group 6, 100 mpk + CS1003.

Counter-ions that a name gives are not always drawn. Like-named read-outs stand apart in the source and are kept apart here.

The term AUC(0-t) denotes the area under the concentration-time curve up to a stated or last time point. In general, Cmax refers to the maximum level reached in the sampled fluid or tissue. Broadly, the Tmax is the time at which the peak concentration occurs. On to `Nc1nc(-c2ccc(F)cc2)c(-c2ccc3ncnn3c2)c2nccnc12` [Embodiment 6 hydrochloride], for which the tumor inhibition rate was 63.16% in data set [1] (25 mg/kg once a day combined with 1 mg/kg CS1003, day 20, p<0.001); 70.90% in data set [1] (50 mg/kg once a day combined with 1 mg/kg CS1003, day 20, p<0.001); 83.22% in data set [1] (50 mg/kg twice a day in combination with CS1003, day 20, P<0.001); 72.48% in data set [1] (100 mg/kg once a day combined with 1 mg/kg CS1003, day 20, p<0.001). In addition, the tumor volume is recorded as 312.06+80.17 mm^3 in data set [1] (25 mg/kg once a day intragastric combined with 1 mg/kg CS1003, end of experiment (day 20)); 246.48+62.57 mm^3 in data set [1] (50 mg/kg once a day intragastric combined with 1 mg/kg CS1003, end of experiment (day 20)); 233.10+59.55 mm^3 in data set [1] (100 mg/kg once a day intragastric combined with 1 mg/kg CS1003, end of experiment (day 20)). Also, the average tumor volume in data set [1] (50 mg/kg twice a day intragastric in combination with CS1003, end of experiment (day 20)) is on record as 142.17+40.30 mm^3. Besides, the concentration at 1 h turned out to be 3.69 µM in data set [2] (setting [3]) and 17.5 µM in data set [2] (setting [4]). The figures for the concentration at 4 h in data set [2] (setting [3]) and in data set [2] (setting [4]) were 0.901 µM and 10.6 µM, respectively. Further, the AUC(0-t) was 23.5 µM·h in data set [2] (setting [5]); 70.6 µM·h in data set [2] (setting [6]); 42 µM·h in data set [2] (setting [7]); 77.9 µM·h in data set [2] (setting [8]); 145 µM·h in data set [2] (setting [9]); 125 µM·h in data set [2] (setting [10]). Besides, the Cmax in data set [2] (setting [5]) is 32.2 µM; in data set [2] (setting [6]) it was 57.2 µM; in data set [2] (setting [7]), 30.1 µM; in data set [2] (setting [8]) it was 47.1 µM; in data set [2] (setting [9]), 114 µM; in data set [2] (setting [10]) it was 132 µM. For the same molecule, the Tmax was found to be 30 min in data set [2] (setting [5]); 15 min in data set [2] (setting [6]); 30 min in data set [2] (setting [7]); 30 min in data set [2] (setting [8]); 15 min in data set [2] (setting [9]); 15 min in data set [2] (setting [10]). The half-life was 65.4 min in data set [2] (setting [5]); 63 min in data set [2] (setting [6]); 95.4 min in data set [2] (setting [8]); 48.6 min in data set [2] (setting [9]); 39.3 min in data set [2] (setting [10]). In addition, the Kp at 4 h was 9.8 in data set [2] (setting [3]); 0.9 in data set [2] (BALB/c, 25 mpk, Group 4, 25 mpk + CS1003); 1.8 in data set [2] (setting [11]); 36 in data set [2] (BALB/c, 50 mpk, Group 8, 50 mpk twice a day + CS1003); 0.9 in data set [2] (setting [12]); 4.2 in data set [2] (setting [13]). Further, the Kp at 1 h in data set [2] (setting [11]) is 0.4; in data set [2] (BALB/c, 50 mpk, Group 7, 50 mpk twice a day alone) it was 0.7; in data set [2] (setting [12]), 0.6; in data set [2] (setting [13]) it was 0.5.

B1: CS1003: full-length, fully humanized immunoglobulin G4 (IgG4) monoclonal antibody for PD-1 (antibody, chains of the INN, looked up, V domains shown)
VH: QVQLVQSGAEVKKPGSSVKVSCKASGFTFTTYYISWVRQAPGQGLEYLGYINMGSGGTNYNEKFKGRVTITADKSTSTAYMELSSLRSEDTAVYYCAIIGYFDYWGQGTMVTVSS
VL: DVVMTQSPLSLPVTLGQPASISCRSSQSLLDSDGGTYLYWFQQRPGQSPRRLIYLVSTLGSGVPDRFSGSGSGTDFTLKISRVEAEDVGVYYCMQLTHWPYTFGQGTKLEIK
Consider B1, for which the tumor volume in data set [1] (CS1003 1 mg/kg intraperitoneal, Day 7, 10, 13, 16, 20th day after starting administration) is 487.34+109.07 mm^3. The tumor inhibition rate in data set [1] (CS1003 1 mg/kg intraperitoneal, Day 7, 10, 13, 16, 20th day, no significant difference vs control) is 42.47%.
